Assay results: patent publication US9335326B2, “Compositions and methods for characterizing a myopathy” (The Johns Hopkins University, priority 2010, dated 2016)

What was measured:
[1] = tested on: HeLa cells; assay: Immunoprecipitation of 200-kd and 100-kd autoantigens from radiolabeled lysates of mevinolin-treated HeLa cells with patient serum; type: cell-based; settings: HeLa cells pretreated for 24 hours with 10 pM mevinolin versus vehicle (DMSO) alone; FIG. 5A
Procedure: Given the strong association of statin use with the development of these anti-200/100-kd autoantibodies, HeLa cells were labelled with ^35S-methionine/cysteine after pretreatment for 24 hours with either 10 pM mevinolin or vehicle (DMSO) alone. To validate the protein equivalence of these lysates, immunoprecipitations were performed using antibodies against Mi-2 or PM-Scl. As anticipated, equal amounts of Mi-2 and the 5 protein components of the PM-Scl complex were detected in each lysate type.
Serum samples collected from each patient were stored at −80° C. HeLa cells cultured using standard procedures were radiolabeled for two hours with 100 μCi/ml ^35S-methionine and cysteine (MP Biomedicals, Solon, Ohio) in methionine-free and cysteine-free medium. The cells were subsequently lysed in buffer A (50 mM Tris pH 7.4, 150 mM NaCl, […], 0.5% Nonidet P40, 0.5% sodium deoxycholate, 0.1% sodium dodecyl sulfate (SDS), and a protease inhibitor cocktail). Each 10-cm dish was lysed in 1 ml buffer A and was used for 10 immunoprecipitations. Immunoprecipitations were performed by adding 1 μl of patient sera to 100 μl radiolabeled lysate and bringing the volume to 1 ml with buffer B (1% Nonidet P40, 20 mM Tris pH 7.4, 150 mM NaCl, 1 mM EDTA, and a protease inhibitor cocktail) and rotating the mix for one hour at 4° C. […]

[2] = tested on: anti-200/100 autoantibody-positive patients; assay: Treatment response (objective improvement in strength) of anti-200/100 autoantibody-positive patients with necrotizing myopathy; type: in vivo, human
Excerpt: Medication regimens and treatment responses (based on objective improvements in strength) were variable. The clinical characteristics of the 16 anti-200/100 autoantibody-positive patients are available. […] Six (43%) of the 14 patients experienced a relapse when immunosuppressive medication was tapered or withdrawn. Seven […] of the 14 patients are currently undergoing tapering of their immunosuppressive medications and have not experienced a relapse to date. Only 1 patient had complete tapering of immunosuppressive medications without experiencing a relapse of weakness.
Two hundred twenty-five patients with banked sera, muscle biopsy specimens available for review, and a myopathy as defined by proximal muscle weakness, elevated creatine kinase (CK)levels, myopathic electromyography (EMG) findings, muscle edema on magnetic resonance imaging (MRI), and/or features of myopathy on muscle biopsy were enrolled in a longitudinal study, approved by the Johns Hopkins Institutional Review Board, from March 2007 through December 2008. […]

[3] = tested on: human anti-HMGCR antibodies; assay: Competition immunoprecipitation: patient sera preincubated with unlabeled C-terminal HMGCR, then IP of full-length IVTT HMGCR; type: binding; settings: anti-HMGCR-positive sera preincubated with increasing concentrations of unlabeled C-terminal HMGCR; FIG. 7A
Excerpt: HMG-CoA reductase is a membrane protein with a small extracellular domain, seven membrane-spanning domains, and an intracellular catalytic domain. To define the region(s) of the protein recognized by sera from patients with anti-HMGCR antibodies, 35S-methionine-labeled full-length HMGCR protein, an N-terminal fragment including the extracellular and membrane-spanning domains (aa 1-377 of SEQ ID NO: 1), and a C-terminal fragment including the intracellular portion of the molecule (aa 340-888 of SEQ ID NO: 1) were synthesized. Serum from anti-HMGCR-positive patients consistently immunoprecipitated full-length HMGCR and the C-terminal fragment, but not the N-terminal fragment (FIG. 6). When anti-HMGCR-positive sera were preincubated with increasing concentrations of unlabeled C-terminal HMGCR prior to immunoprecipitation of 35S-methionine-labeled full-length HMGCR protein, immunoprecipitation was abolished (FIG. 7A).
DNA encoding full-length human HMG-CoA reductase was purchased from Invitrogen (Carlsbad, Calif.). […]
One microliter of each patient serum was preincubated (30 minutes at 4° C. in 50 μl) with the catalytic domain of human HMG-CoA reductase (aa 426-888 of SEQ ID NO: 1) expressed as a fusion protein with glutathione S-transferase (hereinafter referred to as “C-terminal HMG-CoA reductase”; Sigma). […]

Molecule: CC[C@H](C)C(=O)O[C@H]1C[C@@H](C)C=C2C=C[C@H](C)[C@H](CC[C@@H]3C[C@@H](O)CC(=O)O3)[C@H]21 [mevinolin]
- increased levels of both the 200-kd and the 100-kd protein immunoprecipitated [1]: 3 fold

Molecule: C[C@]12C=CC(=O)C=C1CC[C@@H]1[C@@H]2C(=O)C[C@@]2(C)[C@H]1CC[C@]2(O)C(=O)CO [prednisone]
- initial response to prednisone ([2]; most patients, combination immunosuppressive therapy was required): very modest initial response

Molecule: Rituximab: immunosuppressant drug
- benefit as adjunct therapy ([2]; added to prednisone and azathioprine or methotrexate): helpful adjuncts

B1: C-terminal HMGCR: catalytic domain of human HMG-CoA reductase (aa 426-888 of SEQ ID NO: 1) expressed as a fusion protein with glutathione S-transferase (Sigma) (protein, UniProt P04035 426-888, looked up, fragment)
chain: SSVLVTQEPEIELPREPRPNEECLQILGNAEKGAKFLSDAEIIQLVNAKHIPAYKLETLMETHERGVSIRRQLLSKKLSEPSSLQYLPYRDYNYSLVMGACCENVIGYMPIPVGVAGPLCLDEKEFQVPMATTEGCLVASTNRGCRAIGLGGGASSRVLADGMTRGPVVRLPRACDSAEVKAWLETSEGFAVIKEAFDSTSRFARLQKLHTSIAGRNLYIRFQSRSGDAMGMNMISKGTEKALSKLHEYFPEMQILAVSGNYCTDKKPAAINWIEGRGKSVVCEAVIPAKVVREVLKTTTEAMIEVNINKNLVGSAMAGSIGGYNAHAANIVTAIYIACGQDAAQNVGSSNCITLMEASGPTNEDLYISCTMPSIEIGTVGGGTNLLPQQACLQMLGVQGACKDNPGENARQLARIVCGTVMAGELSLMAALAAGHLVKSHMIHNRSKINLQDLQGACTKKTA
modifications: GST fusion
- immunoprecipitation of 35S-methionine-labeled full-length HMGCR protein [3]: abolished
